Laboratory results reported in ChEMBL document CHEMBL1145743, “High-throughput synthesis and optimization of thrombin inhibitors via urazole alpha-addition and Michael addition” (Bioorg Med Chem Lett, 2003).
The source made the active and inactive calls. No cut-off for these calls is given here.

What follows are compounds tested against T1, Prothrombin (Homo sapiens, UniProt P00734) (assay: Inhibitory activity against thrombin at concentration 400 nM; NA: Not active). Details: not given.

SMILES	inhibition
CCCSCC(C(=O)O)n1c(=O)n2n(c1=O)C(C(=O)NC[C@H]1CC[C@H](N)CC1)C=CC2 (some centres not stated)	inactive

Each compound was assayed against T1, Prothrombin (assay: Inhibitory activity against human thrombin). Details: not given.

SMILES	Ki [nM]
COC(=O)C(CSC1CCCCC1)n1c(=O)n2n(c1=O)C(C(=O)NC[C@H]1CC[C@H](N)CC1)C=CC2 (some centres not stated)	91
COC(=O)C(CSc1ccc(Br)cc1)n1c(=O)n2n(c1=O)C(C(=O)NC[C@H]1CC[C@H](N)CC1)C=CC2 (some centres not stated)	0.023
Cc1nc(N)ccc1CNC(=O)C1C=CCn2c(=O)n(C(CSc3ccc(Cl)c(Cl)c3)C(=O)O)c(=O)n21 (configuration not stated)	22
Cc1nc(N)ccc1CNC(=O)C1C=CCn2c(=O)n(C(CSc3ccc(Cl)cc3)C(=O)O)c(=O)n21 (configuration not stated)	32
COC(=O)C(CSc1ccc(OC)cc1)n1c(=O)n2n(c1=O)C(C(=O)NC[C@H]1CC[C@H](N)CC1)C=CC2 (some centres not stated)	0.75
COC(=O)C(CSc1ccc(Cl)c(Cl)c1)n1c(=O)n2n(c1=O)C(C(=O)NCc1ccc(N)nc1C)C=CC2 (configuration not stated)	78
Cc1nc(N)ccc1CNC(=O)C1C=CCn2c(=O)n(C(CSc3ccc(Br)cc3)C(=O)OC(C)C)c(=O)n21 (configuration not stated)	0.087
Cc1nc(N)ccc1CNC(=O)C1C=CCn2c(=O)n(C(CSc3ccc(Cl)c(Cl)c3)C(=O)N3CCCC3)c(=O)n21 (configuration not stated)	18
COC(=O)C(CSc1ccc(OC)cc1)n1c(=O)n2n(c1=O)C(C(=O)NCc1ccc(N)nc1C)C=CC2 (configuration not stated)	80
COC(=O)C(CSc1ccc(Cl)cc1)n1c(=O)n2n(c1=O)C(C(=O)NCc1ccc(N)nc1C)C=CC2 (configuration not stated)	82
N[C@H]1CC[C@H](CNC(=O)C2C=CCn3c(=O)n(C(CSc4ccc(Cl)c(Cl)c4)C(=O)O)c(=O)n32)CC1 (some centres not stated)	13
COC(=O)C(CSc1ccccc1)n1c(=O)n2n(c1=O)C(C(=O)NC[C@H]1CC[C@H](N)CC1)C=CC2 (some centres not stated)	2.9
COC(=O)C(CSc1ccc(Br)cc1)n1c(=O)n2n(c1=O)C(C(=O)NCc1ccc(N)nc1C)C=CC2 (configuration not stated)	83
N[C@H]1CC[C@H](CNC(=O)C2C=CCn3c(=O)n(C(CSc4ccccc4)C(=O)O)c(=O)n32)CC1 (some centres not stated)	36
CCOC(=O)C(CSc1ccc(Cl)c(Cl)c1)n1c(=O)n2n(c1=O)C(C(=O)NCc1ccc(N)nc1C)C=CC2 (configuration not stated)	28
Cc1nc(N)ccc1CNC(=O)C1C=CCn2c(=O)n(C(CSc3ccccc3)C(=O)O)c(=O)n21 (configuration not stated)	15
Cc1nc(N)ccc1CNC(=O)C1C=CCn2c(=O)n(C(CSc3ccc(Cl)cc3)C(=O)OC3CCCCC3)c(=O)n21 (configuration not stated)	0.057
Cc1nc(N)ccc1CNC(=O)C1C=CCn2c(=O)n(C(CSc3ccc(Cl)cc3)C(=O)OC(C)C)c(=O)n21 (configuration not stated)	1.5

SMILES	Ki [nM]
Cc1nc(N)ccc1CNC(=O)C1C=CCn2c(=O)n(C(CSc3ccc(Cl)c(Cl)c3)C(=O)OC(C)C)c(=O)n21 (configuration not stated)	53
Cc1nc(N)ccc1CNC(=O)C1C=CCn2c(=O)n(C(CSC3CCCCC3)C(=O)O)c(=O)n21 (configuration not stated)	11
N[C@H]1CC[C@H](CNC(=O)C2C=CCn3c(=O)n(C(CSc4ccc(Br)cc4)C(=O)O)c(=O)n32)CC1 (some centres not stated)	2.6
CCOC(=O)C(CSc1ccc(Br)cc1)n1c(=O)n2n(c1=O)C(C(=O)NCc1ccc(N)nc1C)C=CC2 (configuration not stated)	0.27
N[C@H]1CC[C@H](CNC(=O)C2C=CCn3c(=O)n(C(CSc4ccc(Cl)cc4)C(=O)O)c(=O)n32)CC1 (some centres not stated)	5.7
COc1ccc(SCC(C(=O)O)n2c(=O)n3n(c2=O)C(C(=O)NC[C@H]2CC[C@H](N)CC2)C=CC3)cc1 (some centres not stated)	4.7
COC(=O)C(CSC1CCCCC1)n1c(=O)n2n(c1=O)C(C(=O)NCc1ccc(N)nc1C)C=CC2 (configuration not stated)	28
COC(=O)C(CSc1ccccc1)n1c(=O)n2n(c1=O)C(C(=O)NCc1ccc(N)nc1C)C=CC2 (configuration not stated)	32
N[C@H]1CC[C@H](CNC(=O)C2C=CCn3c(=O)n(C(CSC4CCCCC4)C(=O)O)c(=O)n32)CC1 (some centres not stated)	53
COC(=O)C(CSc1ccc(Cl)cc1)n1c(=O)n2n(c1=O)C(C(=O)NC[C@H]1CC[C@H](N)CC1)C=CC2 (some centres not stated)	0.32
Cc1nc(N)ccc1CNC(=O)C1C=CCn2c(=O)n(C(CSc3ccc(Cl)c(Cl)c3)C(=O)OC3CCCCC3)c(=O)n21 (configuration not stated)	87
COC(=O)C(CSc1ccc(Cl)c(Cl)c1)n1c(=O)n2n(c1=O)C(C(=O)NC[C@H]1CC[C@H](N)CC1)C=CC2 (some centres not stated)	0.24
Cc1nc(N)ccc1CNC(=O)C1C=CCn2c(=O)n(C(CSc3ccc(Br)cc3)C(=O)N3CCCC3)c(=O)n21 (configuration not stated)	30
Cc1nc(N)ccc1CNC(=O)C1C=CCn2c(=O)n(C(CSc3ccc(Cl)cc3)C(=O)N3CCOCC3)c(=O)n21 (configuration not stated)	7.7
Cc1nc(N)ccc1CNC(=O)C1C=CCn2c(=O)n(C(CSc3ccc(Cl)cc3)C(=O)N3CCCC3)c(=O)n21 (configuration not stated)	24
COc1ccc(SCC(C(=O)O)n2c(=O)n3n(c2=O)C(C(=O)NCc2ccc(N)nc2C)C=CC3)cc1 (configuration not stated)	29
Cc1nc(N)ccc1CNC(=O)C1C=CCn2c(=O)n(C(CSc3ccc(Br)cc3)C(=O)OC3CCCCC3)c(=O)n21 (configuration not stated)	1.5
Cc1nc(N)ccc1CNC(=O)C1C=CCn2c(=O)n(C(CSc3ccc(Br)cc3)C(=O)N3CCOCC3)c(=O)n21 (configuration not stated)	39

These compounds were tested against T1, Prothrombin (assay: Inhibitory activity against thrombin; NA=not active). Details: not given.

SMILES	Ki
Cc1nc(N)ccc1CNC(=O)C1C=CCn2c(=O)n(C(CSc3ccc(Cl)c(Cl)c3)C(=O)N3CCOCC3)c(=O)n21 (configuration not stated)	Not Active
CCOC(=O)C(CSc1ccc(Cl)cc1)n1c(=O)n2n(c1=O)C(C(=O)NCc1ccc(N)nc1C)C=CC2 (configuration not stated)	Not Active
Cc1nc(N)ccc1CNC(=O)C1C=CCn2c(=O)n(C(CSc3ccc(Br)cc3)C(=O)O)c(=O)n21 (configuration not stated)	Not Active

Each compound was assayed against T1, Prothrombin. Details: at 400 nM.
Description: Inhibitory activity against thrombin at 400 nM; NA=not active

SMILES	inhibition
COC(=O)C(CSc1ccc(Br)cc1)n1c(=O)n2n(c1=O)C(C(=O)NC[C@H]1CC[C@H](N)CC1)C=CC2 (some centres not stated)	inactive
COC(=O)C(CNC1CCCCC1)n1c(=O)n2n(c1=O)C(C(=O)NCc1ccc(N)nc1C)C=CC2 (configuration not stated)	inactive
COC(=O)C(CSCC(O)CO)n1c(=O)n2n(c1=O)C(C(=O)NCc1ccc(N)nc1C)C=CC2 (configuration not stated)	inactive
CC(=O)Nc1ccc(SCC(C(=O)O)n2c(=O)n3n(c2=O)C(C(=O)NC[C@H]2CC[C@H](N)CC2)C=CC3)cc1 (some centres not stated)	inactive
N[C@H]1CC[C@H](CNC(=O)C2C=CCn3c(=O)n(C(CNC4CCCCC4)C(=O)O)c(=O)n32)CC1 (some centres not stated)	inactive
Cc1nc(N)ccc1CNC(=O)C1C=CCn2c(=O)n(C(CNCC(C)C)C(=O)O)c(=O)n21 (configuration not stated)	inactive
CCCSCC(C(=O)O)n1c(=O)n2n(c1=O)C(C(=O)NCc1ccc(N)nc1C)C=CC2 (configuration not stated)	inactive
COC(=O)C(CSc1ccc(C)cc1C)n1c(=O)n2n(c1=O)C(C(=O)NCc1ccc(N)nc1C)C=CC2 (configuration not stated)	inactive
Cc1nc(N)ccc1CNC(=O)C1C=CCn2c(=O)n(C(CSCC(C)C)C(=O)O)c(=O)n21 (configuration not stated)	inactive
Cc1nc(N)ccc1CNC(=O)C1C=CCn2c(=O)n(C(CSc3ccc(Br)cc3)C(=O)O)c(=O)n21 (configuration not stated)	inactive
Cc1nc(N)ccc1CNC(=O)C1C=CCn2c(=O)n(C(CNCc3ccccc3)C(=O)O)c(=O)n21 (configuration not stated)	inactive
COC(=O)C(CNCC(C)C)n1c(=O)n2n(c1=O)C(C(=O)NCc1ccc(N)nc1C)C=CC2 (configuration not stated)	inactive
